Data from US11389415B2, “Methods of regulating cannabinoid receptor activity-related disorders and diseases” (The United States of America as represented by the …, priority 2012, dated 2022).
“Also recorded” adds a separate entry of the source.

How the values were obtained:
[1] = Dose escalation and 7-day repeat dose range finding study in Sprague-Dawley rats; format: in vivo, rat; details: for Gross Necropsy Observation: interim (Day 8) and terminal (Day 14), red: thymus, mandibular lymph node, black or necrosis: tail
Procedure: A single dose escalation study was performed to select dose levels for 7-day repeat dose study with IV administration in Sprague-Dawley rats. Dose levels were 0, 5, 10 and 25 mg/kg.

rat C6 glioma xenograft = assay: C6 tumor xenograft in mice, tumor growth; format: in vivo, mouse
Procedure: C6 tumor xenograft in mice. In order to assess the ability of MNF to induce regression of tumor growth in vivo, rat C6 glioma cells were trypsin-collected at confluency and were used to generate tumor xenografts. Athymic female nude mice (SWISS nu+/nu+) were obtained from Charles Rivers (L'Arbresle, France) and maintained under pathogen-free conditions with a 12 hours light/12 hours dark cycle. Animals were fed ad libitum with normal chow (supplier). Athymic nude mice were inoculated subcutaneously with […] containing 0.5×10^6 C6 glioma cells in the left flank and then were randomly divided into two groups of 10 animals each. Starting 3 days after cell inoculation, mice received daily intraperitoneal injection (10 μl·g-1 body weight) of vehicle or MNF (2 mg·kg-1) in 100 μM ascorbic acid in saline (vehicle) five days a week for 19 days. Animal survival was monitored daily, and tumor size was determined with the use of a caliper to measure the length (a) and width (b) and estimated as 4/3π×rl2×r2, where rl is the smaller and r 2 the larger radius. […] The mice were euthanized by cervical […], and tumor masses were removed, weighed and washed with cold PBS before being snap-frozen in liquid nitrogen. A second set of studies with 8-9 animals in both groups was repeated.

HepG2 and PANC-1 cells = assay: Cell morphology and EGFR expression in HepG2 and PANC-1 cells; format: cell-based, human
Procedure: FIGS. 26A-26C show MNF interferes with inducible changes in cell morphology and expression of EGFR. […] White arrows show individual cells with filopodia. FIG. 26C, Cell lysates were prepared from similar studies and immunoblotted for EGFR. The membranes were reprobed for Hsp90, which served as a loading control.
Western blot analysis. For detection of intracellular signaling proteins, cells were lysed in radioimmunoprecipitation buffer containing EGTA and EDTA (Boston BioProducts, Ashland, Mass.). The lysis buffer contained a protease inhibitor cocktail (Sigma-Aldrich) and phosphatase inhibitor cocktail (Calbiochem, San Diego, Calif.). Equivalent amount of proteins (14 and 54 μg/well for PANC-1 and HepG2 cells, respectively) were separated on 4 to 12% precast gels (Invitrogen, Carlsbad, Calif.) using SDS-polyacrylamide gel electrophoresis under reducing conditions and then electrophoretically transferred onto polyvinylidene fluoride membrane (Invitrogen). Western blots were performed according to standard methods, which involved blocking in 5% non-fat milk and incubated with the antibody of interest, followed by incubation with a secondary antibody conjugated with the enzyme horseradish perodixase. The detection of immunoreactive bands was performed by chemiluminescence using the ECL Plus Western Blotting Detection System (GE Healthcare, Piscataway, N.J.). The quantification of bands was done by volume densitometry by using ImageJ software. The rabbit polyclonal antibodies against EGFR were obtained from Cell Signaling Technology, Inc. (Beverly, Mass.) and the monoclonal anti-Hsp90 was purchased from Santa Cruz Biotechnology, Inc. (Santa Cruz, Calif.).

GPR55 = GPR55 (Homo sapiens, UniProt Q9Y2T6); assay: Cellular uptake of TocriFluor T1117 in PANC-1 cells; details: MNF 1 μM
GPR55, sequence (Q9Y2T6 whole entry): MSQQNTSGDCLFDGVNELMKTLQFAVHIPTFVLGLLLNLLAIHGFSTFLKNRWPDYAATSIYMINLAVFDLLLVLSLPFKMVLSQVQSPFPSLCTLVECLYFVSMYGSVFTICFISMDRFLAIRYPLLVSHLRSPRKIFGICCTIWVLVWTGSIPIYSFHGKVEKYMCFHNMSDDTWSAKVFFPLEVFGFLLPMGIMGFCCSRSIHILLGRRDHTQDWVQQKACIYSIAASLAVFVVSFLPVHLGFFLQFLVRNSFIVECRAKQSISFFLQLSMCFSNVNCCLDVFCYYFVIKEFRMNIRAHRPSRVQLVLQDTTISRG
Procedure: Cellular uptake of TocriFluor T1117, a fluorescently labeled GPR55 agonist Cells were grown in 35-mm glass bottom culture dishes (MatTek Corp., Ashland, Mass., USA) for 48 hours until reaching ˜70% confluence. […] Cells were imaged with a Zeiss LSM 710 confocal microscope equipped with a temperature-controlled and humidified CO2 chamber and a definite focus system. […] The time-series function of the Zeiss Zen software was used to collect images with a 40×1.3 NA objective every 30 s for up to one hour, with all confocal settings remaining the same throughout the studies. Still images, movies and fluorescent intensity quantitation were obtained from these series using the Zeiss Zen software. Studies were repeated at least two to three times.

With COc1ccc(C[C@@H](C)NC[C@H](O)c2cc(O)cc(O)c2)c2ccccc12 [(R,R′)-MNF, (R,R′)-4′-methoxy-1-naphthylfenoterol] the “Body Weight” value ([1]; Sprague Dawley rats, iv, 0, 5, 10, or 25 mg/kg/day, 7-day) was “comparable”, the “Clinical Pathology: increases in WBC, % Neut., % RET/REA, and PLC” value ([1]; high-dose males and females, Day 8 and Day 14) was “Increases: ~2-fold” and the “Gross Necropsy Observation” value ([1]; black discoloration or necrosis, tail) was “Discolored black”. For the same compound, the “Gross Necropsy Observation” value ([1]; red discoloration, thymus and lymph node) was “Discolored red:”, the “toxic effects” value ([1]; single dose escalation, IV, 0, 5, 10 and 25 mg/kg, Sprague-Dawley rats) was “Toxic effects were minimal” and the “average AUC±SEM (tumor volume over time, FIG. 19B)” value (rat C6 glioma xenograft; C6 tumor-bearing female nude mice, 2 mg/kg, five days a week for 19 days, n=19 (vehicle 5450±518)) was 3217±265. The “tumor volume compared with vehicle-treated group” value (rat C6 glioma xenograft; C6 xenograft in nude mice, 2 mg/kg intraperitoneal) was “Significant reduction in mean tumor volumes; also recorded: Significant reduction in tumor volume”, the “effect on O-1602-induced EGFR levels” value (HepG2 and PANC-1 cells; 1 μM pretreatment) was “MNF blocked this effect” and the “effect on change in morphology induced by AM251 and O-1602” value (HepG2 and PANC-1 cells; 1 μM pretreatment 30 minutes, agonists 5 μM 16 hours) was “rendered the cells refractory to the change in morphology induced by AM251 and O-1602”. The “T1117 incorporation” value (GPR55) was “potent inhibitor of T1117 incorporation in PANC-1 cells”.
